Measured values as given in patent US5635514A, “Heteroaralkyl and heteroarylthioalkyl thiophenolic compounds as 5-lipoxgenase inhibitors” (G. D. Searle & Company, priority 1994, dated 1997).

What was measured:
[1] = test system: LTB4 production by calcium ionophore stimulated human blood; experiment: Human Whole Blood LTB4 Assay (calcium ionophore stimulated LTB4 production); type: cell-based; conditions: calcium ionophore A23187, LTB4
Method: (§1) (c) LTB4 and Thromboxane Production by Calcium Ionophore Stimulated Human Blood--Human Whole Blood LTB4 Assay
(§2) The compounds of the present invention were evaluated with respect to 5-lipoxygenase inhibition according to the Human Whole Blood LTB4 Assay described below.
(§3) Human whole blood was collected in heparin containing Vacutainer brand tubes. The blood was diluted with RPMI-1640 cell culture media [1:4] (Gibco, Grand Island, N.Y.) and 200 microliters were added per well in 96 well microtiter plates. Compounds of the present invention diluted in dimethylsulfoxide were added to the blood and allowed to incubate for 15 minutes at 37° C. in a humidified incubator. Calcium ionophore A23187 [20 mcg/ml final concentration, Sigma Chemical Co., St. Louis, Mo.] was added, and the incubation was continued for 10 minutes. The incubation was terminated by centrifugation [833 g, 10 minutes at 4° C.]. Supernatants were analyzed for LTB4 and thromboxane by commercially available enzyme-linked immunoassays [Caymen Chemical Co., Ann Arbor, Mich.]. Test compounds which inhibit 5-lipoxygenase in this assay inhibit the formation of LTB4 and cause reduced levels of this agent in the supernatant.
(§4) The results of this assay are expressed in terms of activity with respect to 5-lipoxygenase inhibition as an IC50 value (50% inhibitory concentration).

[2] = test system: TPA-induced ear inflammation (Mouse, Ear); experiment: Tetradecanoylphorbol Acetate (TPA) Assay (TPA-induced mouse ear inflammation); type: in vivo; conditions: 50 mpk, ip + 120 minute; for TPA Edema (% Inhibition): ear thickness
Method: The compounds of the present invention were evaluated with respect to 5-lipoxygenase inhibition according to the Tetradecanoylphorbol Acetate (TPA) Assay which is described in Rao et al., "Comparative Evaluation of Arachidonic Acid (AA)--And Tetradecanoylphorbol Acetate (TPA)-Induced Dermal Inflammation." Inflammation, Vol. 17, No. 6, 723-741 (1993), which is incorporated herein by reference.
In this study, selective 5-lipoxygenase inhibitors, such as zileuton, MK-886, LTB4 and LTD4 receptor […] were evaluated in acute inflammatory responses elicited by the topical application of TPA to the ears of mice. The increases in edema and myeloperoxidase (MPO) were used as readouts of inflammatory responses.
Animals. Female BALB/c mice (17-25 g; Jackson Labs, Bar Barbor, Me.) or male Swiss Webster mice (Charles River, Portage, Mich.) were used in the studies. The animals were housed in a vivarium with a 12-hour lighting schedule (0600-1800 hours on) with free access to food and water. Housing and experimental procedures were conducted according to institutionally approved (Monsanto, St. Louis, Mo. and National Institute of Health) guidelines.
Drugs and Reagents. Hexadecyltrimethylammonium bromide (HTAB), and TPA were purchased from Sigma Chemical Co. (St. Louis, Mo.). Human polymorphonuclear leukocyte myeloperoxidase (20 units/mg protein) was obtained from Calbiochem (San Diego, Calif.). One unit of MPO was defined as the activity of the enzyme that oxidizes 1 μmol of hydrogen peroxide per minute at 25° C.
TPA Inflammation Model. […] Four hours following the application of TPA, increases in ear thickness were measured and ears were excised for MPO measurements.
Measurement of MPO. […] The rate of change of absorbance was monitored in kinetic mode by a plate reader (Molecular Devices, Menlo Park, Calif.). Levels of MPO in lavage samples were determined from the calibration curves using human neutrophil MPO as the reference standard. The levels of MPO were expressed as milliunits per ear. […]

[3] = test system: Thromboxane production by calcium ionophore stimulated human blood; experiment: Human Whole Blood Assay, thromboxane production (calcium ionophore stimulated); type: cell-based; conditions: calcium ionophore A23187, thromboxane
Method: as §1, §2, §3, §4

[4] = target: T1, Human recombinant 5-lipoxygenase (Homo sapiens, UniProt P09917); experiment: Recombinant 5-Lipoxygenase Inhibition Assay; type: biochemical; conditions: 25° C., 8 minutes, absorbance at 240 nm
T1 construct: made in house; host or cells: E. coli
T1 sequence (P09917 1-674): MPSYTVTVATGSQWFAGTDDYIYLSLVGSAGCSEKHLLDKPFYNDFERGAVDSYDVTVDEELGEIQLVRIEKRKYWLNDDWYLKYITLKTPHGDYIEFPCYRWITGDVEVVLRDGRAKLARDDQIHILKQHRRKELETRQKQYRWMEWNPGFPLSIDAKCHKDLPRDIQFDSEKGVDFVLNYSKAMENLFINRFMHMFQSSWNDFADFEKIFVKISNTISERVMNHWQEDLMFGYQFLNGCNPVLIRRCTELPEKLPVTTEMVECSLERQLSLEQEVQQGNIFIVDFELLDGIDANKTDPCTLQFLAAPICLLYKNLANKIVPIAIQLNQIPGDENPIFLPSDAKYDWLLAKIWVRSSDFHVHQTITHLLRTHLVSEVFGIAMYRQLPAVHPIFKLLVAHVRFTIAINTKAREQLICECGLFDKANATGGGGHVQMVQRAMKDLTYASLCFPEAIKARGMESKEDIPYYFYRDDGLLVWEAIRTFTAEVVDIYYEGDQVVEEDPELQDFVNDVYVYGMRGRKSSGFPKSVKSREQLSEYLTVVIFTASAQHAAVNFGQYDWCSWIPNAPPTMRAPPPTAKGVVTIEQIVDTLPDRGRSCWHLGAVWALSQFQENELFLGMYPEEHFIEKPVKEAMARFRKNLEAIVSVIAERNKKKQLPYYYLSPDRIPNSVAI
Method: The compounds of the present invention were evaluated with respect to 5-lipoxygenase inhibition according to the Recombinant 5-Lipoxygenase Inhibition Assay described below.
Human 5-lipoxygenase expressed in E. coli as a soluble protein was prepared in the manner described by M. Noguchi et al., "Expression of Human 5-Lipoxygenase cDNA in E. coli," FEBS Letters, Vol. 249, No. 2, 267-270 (1989), which is incorporated herein by reference. The human 5-lipoxygenase was partially purified by ion exchange chromatography and stored in 50 mM Tris-HCl buffer (pH 8.1) containing 150 mM NaCl, 2 mM EDTA, 2 mM DTT, and 50% glycerol at -70° C. before use.
The following solutions were prepared as indicated: CaCl2 /ATP, 12.5 mM CaCl2 and 5 mM ATP in H2 O; arachidonic acid, 4 mM in ethanol; potassium phosphate buffer, 50 mM potassium phosphate and 0.1 mM EDTA, pH 7.2. Test compounds were first prepared at 10 mM in DMSO and further diluted to desirable concentrations with DMSO.
The assay was carried out in a quartz cuvette to which 15 μl CaCl2 /ATP, 7.5 μl arachidonic acid, 7.5 μl ethanol or test compound, and 710 μl potassium phosphate buffer, in that order, were added and mixed. The mixture was prewarmed to 25° C. The enzymatic reaction was started by adding 10 μl of 5-lipoxygenase enzyme (~0.2 mg protein), and the formation of the reaction product 5-HPETE/5-HETE at 25° C. for 8 minutes was determined by measuring the increase in the absorbance at 240 nm using a Beckman DU-7 spectrophotometer.
The results for this assay are expressed in terms of activity with respect to 5-lipoxygenase inhibition as an IC50 value (50% inhibitory concentration).

Row | Compound | IC50 [1] | TPA Edema (% Inhibition) [2] | IC50 [3] | IC50 [4] | TPA MPO (% Inhibition) ([2]; myeloperoxidase)
1 | CC(C)(C)c1cc(SCC(O)Cn2ccc3ncnc-3c2)cc(C(C)(C)C)c1O (racemic) [Compound 27, (±) 2,6-bis(1,1-dimethylethyl)-4-[[2-hydroxy-3-(5H-imidazo[4,5-c]pyridin-5-yl]propylthio]phenol Hydrate] | 7.42 µM | 46% | 37.3 µM | 1.1 ± 0.23 µM | 
2 | CC(C)(C)c1cc(SCCCn2ccc3ncnc-3c2)cc(C(C)(C)C)c1O [Compound 5, 2,6-bis(1,1-dimethylethyl)-4-[[3-(5H-imidazo-[4,5-c]pyridin-5-yl)propyl]thio]phenol] | 13.3 µM | 42% | 50 µM | 0.57 ± 0.07 µM | 24%
3 | CC(C)(C)c1cc(SCCn2ccc3ncnc-3c2)cc(C(C)(C)C)c1O [Compound 8, 2,6-bis(1,1-dimethylethyl)-4-[[2-(5H-imidazo-[4,5-c]pyridin-5-yl)ethyl]thio]phenol Hydrate] |  |  |  | 4.48 ± 0.36 µM | 
4 | CC(C)(C)c1cc(SCCCCn2ccc3ncnc-3c2)cc(C(C)(C)C)c1O [Compound 14, 2,6-bis(1,1-dimethylethyl)-4-[[4-(5H-imidazo-[4,5-c]pyridin-5-yl)butyl]thiophenol Hydrate] |  |  |  | 0.41 ± 0.02 µM | 
5 | CC(C)(C)c1cc(SCCCn2cnc3ccncc32)cc(C(C)(C)C)c1O [Compound 15, 2,6-bis(1,1-dimethylethyl)-4-[[3-(1H-imidazo[5,4-c]pyridin-1-yl]propyl]thio]phenol] | 6.27 µM |  | 14.4 µM | 0.49 ± 0.04 µM | 
6 | CC(C)(C)c1cc(SCCCn2cnc3cnccc32)cc(C(C)(C)C)c1O [Compound 16, 2,6-bis(1,1-dimethylethyl)-4-[[3-(1H-imidazo[4,5-c]pyridin-1-yl)propyl]thio]phenol] |  |  |  | 0.34 ± 0.1 µM | 
7 | CC(C)(C)c1cc(SCCCn2cnc3cccnc32)cc(C(C)(C)C)c1O [Compound 18, (2,6-bis(1,1-dimethylethyl)-4-[[3-(1H-imidazo[5,4-b]pyridin-1-yl)propyl]thio]phenol Hydrate] |  |  |  | 0.32 ± 0.02 µM | 
8 | CC(C)(C)c1cc(SCCCn2cnc3ncccc32)cc(C(C)(C)C)c1O [Compound 19, 2,6-bis(1,1-dimethylethyl)-4-[[3-1H-imidazo[4,5-b]pyridin-1-yl)propyl]thio]-phenol Hydrate] | 6.62 µM |  | > 39 µM | 0.36 ± 0.07 µM | 
9 | CC(C)(C)c1cc(SCCCn2cnc3ccccc32)cc(C(C)(C)C)c1O [Compound 21, 2,6-bis(1,1-dimethylethyl)-4-[[3-(1H-benzimidazol-1-yl)propyl]thio]phenol] | 2.26 µM |  | 18.6 µM | 0.14 ± 0.02 µM | 
10 | CC(C)(C)c1cc(SCCCn2ccc3ccccc32)cc(C(C)(C)C)c1O [Compound 24, 2,6-bis(1,1-dimethylethyl)-4-[[3-(1H-indol-1-yl)propyl]thio]phenol Hydrate] |  |  |  | 0.48 ± 0.09 µM | 
11 | CC(C)(C)c1cc(SCCSc2nc3ccccc3o2)cc(C(C)(C)C)c1O [Compound 26, 2,6-bis(1,1-dimethylethyl)-4-[[2-[(1,3-benzoxazol-2-yl)thio]ethyl]thio]phenol Hydrate] | 11.1 µM |  | 9.1 µM | 0.93 ± 0.16 µM | 
12 | CC(C)(C)c1cc(SCc2nc3cccnc3[nH]2)cc(C(C)(C)C)c1O [Compound 29, 2,6-bis(1,1-dimethylethyl)-4-[[(3H-imidazo-[4,5-b]pyridin-2-yl)methyl]thio]phenol] | 20.1 µM |  | 50 µM | 1.8 ± 0.3 µM | 
